The text below walks through data of paper PMC8311651, “Controlling Intramolecular Interactions in the Design of Selective, High-Affinity Ligands for the CREBBP Bromodomain” (Journal of Medicinal Chemistry, 2021).

Assay [1] addresses T1, CREBBP bromodomain (Homo sapiens, UniProt Q92793). Description: Isothermal titration calorimetry (ITC), CREBBP bromodomain. The class given is binding. The protocol:
Figure S11. The isothermal titration calorimetry (ITC) data for the compounds shown, measured for the CREBBP bromodomain.
(§1) Isothermal Titration Calorimetry. All calorimetric experiments were performed on a MicroCal iTC200 or MicroCal PEAQ-ITC Automated (Malvern) and analyzed with the MicroCal PEAQ-ITC Analysis software (Malvern 1.1.0.1262) using a single binding site model, with the N number set to 1. The first data point was excluded from the analysis.
(§2) BRD4(1) and CREBBP bromodomains were dialyzed at 4 °C overnight in a Slide-A-Lyzer® MINI Dialysis Device (2000 MWCO; Thermo Scientific Life Technologies) into 50 mM HEPES, 150 mM NaCl containing 0.2% DMSO; pH 7.4. Proteins were centrifuged to remove […]
(§3) Protein concentration were determined by measuring
(§4) Technologies Inc.) by using the predicted protein absorbance (CREBBP: ε280: […]
(§5) dissolved as 10 to 50 mM DMSO stock solution and diluted to the required concentration using dialysis buffer. The cell was stirred at 750 rpm, reference power set to 5 μcal/sec and temperature held at 25 °C. After an initial delay of 60 sec, 20 × 2 μL injections (first injection 0.4 μL) were performed with a spacing of 150 sec. Heated dilutions were measured under the same conditions and subtracted for analysis. Small molecule solutions in the calorimetric
Target sequence in this assay (Q92793 1081-1197): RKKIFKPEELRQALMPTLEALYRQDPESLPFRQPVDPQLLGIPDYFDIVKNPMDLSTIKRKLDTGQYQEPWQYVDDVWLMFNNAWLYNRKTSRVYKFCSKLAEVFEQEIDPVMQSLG

Assay [2] concerns the target T2, BRD4(1) (Homo sapiens, UniProt O60885). Description: Isothermal titration calorimetry (ITC), BRD4(1). It counts as binding. The protocol:
as §1, §2, §3, §4, §5

Assay [3] concerns the target T1, CREBBP bromodomain. Description: BROMOscan (bromoKdELECT), CREBBP. It counts as binding. The note with it: concentrations of up to 1 μM. The protocol:
(§6) Figure 7 Representation of the bromoKdELECT data for (A) compound 2 and (B) compound 3. Using the BROMOscan platform, Kd values were determined for 12 phylogenetically diverse bromodomains (ATAD2B, BRD2(1), BRD4(1), BRD7, BRD9, BRPF1, CREBBP, EP300, PCAF, SMARCA4, TAF1(2), and TRIM24).
Target sequence in this assay (Q92793 1085-1192 limits assumed): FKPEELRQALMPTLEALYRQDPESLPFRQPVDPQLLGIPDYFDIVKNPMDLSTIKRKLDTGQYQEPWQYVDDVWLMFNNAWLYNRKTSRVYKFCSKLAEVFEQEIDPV

Another assay deals with T3, EP300 bromodomain (Homo sapiens, UniProt Q09472).
T3 sequence (Q09472 1049-1156 limits assumed): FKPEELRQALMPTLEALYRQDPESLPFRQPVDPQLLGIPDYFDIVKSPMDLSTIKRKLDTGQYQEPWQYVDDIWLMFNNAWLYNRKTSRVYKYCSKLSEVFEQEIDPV
Description: BROMOscan (bromoKdELECT), EP300. It counts as binding. The note with it: concentrations of up to 1 μM. The protocol:
as §6

Assay [4] relates to ATAD2B, BRD2(1), BRD4(1), BRD7, BRD9, BRPF1, PCAF, SMARCA4, TAF1(2), TRIM24 bromodomains. Description: BROMOscan (bromoKdELECT), other bromodomains of the panel. The class given is binding. To be noted: concentrations of up to 1 μM. The protocol: as §6
A further assay deals with c-Myc in HCT116 cells. Description: c-Myc protein level in HCT116 cells (Western blot). The class given is cell-based, human. The note with it: HCT116, 10 μM, 6-24 h.
Assay [5] has as its system c-Myc mRNA in HCT116 cells. Description: c-Myc mRNA level in HCT116 cells (Q-PCR). The class given is cell-based, human. To be noted: HCT116, 10 μM, Q-PCR vs 18S. The protocol:
(A) HCT116 cells were exposed to 2 (10 μM) for the times shown. Western blots were then carried out for the proteins indicated. β-Actin is included as a loading control. (B) HCT116 cells were exposed to 2 (10 μM) for the times indicated followed by mRNA preparation. Q-PCR was then carried out to determine c-Myc mRNA levels compared to the 18S. Data were analyzed using one-way ANOVA. *P < 0.05, **P < 0.01, ***P < 0.001. […] (E) HCT116 cells were exposed to 2 (10 μM) or I-CBP112 for the times indicated. […]
Petri dishes overnight. Following compound treatment, cells were collected, and RNA was
isolated using TRIzol (Invitrogen/Life Technologies) according to the manufacturer’s
instructions. For qPCR expression analysis, cDNA was reverse transcribed from total RNA
using the Verso Kit (Thermo Scientific). qPCR was performed using the SYBR Green PCR
Master Mix Kit (Applied Biosystems) in a 7500 FAST Real-Time PCR thermocycler with
v2.0.5 software (Applied Biosystems). The following sequences of qPCR primers were used: […]
(§7) c-MYC For: […], c-MYC Rev: […],
18S For: […], 18S Rev: […]. The
c-MYC mRNA fold change was calculated using a 2–ΔΔCt method and expressed in relation
to the 18S reference gene. The qPCR graph shown represents the mean ± SD of 3 biological

A further assay relates to H3K18Ac in HCT116 cells. Description: H3K18 acetylation in HCT116 cells (Western blot). The class given is cell-based, human. To be noted: HCT116, 10 μM. The protocol:
(§8) (A) HCT116 cells were exposed to 2 (10 μM) for the times shown. Western blots were then carried out for the proteins indicated. β-Actin is included as a loading control. (B) HCT116 cells were exposed to 2 (10 μM) for the times indicated followed by mRNA preparation. Q-PCR was then carried out to determine c-Myc mRNA levels compared to the 18S. Data were analyzed using one-way ANOVA. *P < 0.05, **P < 0.01, ***P < 0.001. […] (E) HCT116 cells were exposed to 2 (10 μM) or I-CBP112 for the times indicated.
(§9) overnight. Following compound treatment, cells were collected and lysed in urea buffer (9 M
(§10) urea, 75 mM Tris-HCl pH 7.5, 0.15 M β-mercaptoethanol). Proteins (50 µg) were separated
(§11) by gel electrophoresis on a 4-20% Tris-glycine gel and subjected to immunoblotting. The
(§12) 15, Santa Cruz). Secondary antibodies IRDye® 680RD Goat anti-Mouse IgG (H+L) and
(§13) IRDye® 680RD Goat anti-Rabbit IgG (H+L) were from LI-COR Biosciences. The Odyssey
(§14) infrared system (LI-COR) was used to image Western blots. […]
as §7
(§15) 18S For: […], 18S Rev: […]. […]

Another assay concerns H3K27Ac in HCT116 cells. Description: H3K27 acetylation in HCT116 cells (Western blot). The class given is cell-based, human. The note with it: HCT116, 10 μM. The protocol:
as §8, §9, §10, §11, §12, §13, §14, §7, §15

For another assay, the system named is HIF-1α in HCT116 cells. Description: HIF-1α level in HCT116 cells in hypoxia (Western blot). The class given is cell-based, human. The note with it: HCT116, 10 μM, hypoxia (<0.1% O2).
Assay [6] addresses T2, BRD4(1). To be noted: read-out: BRD4(1) Kd (NMR); ligand-observed 1H NMR, estimated Kd.
Description: The reduction of the signal for the 4,5-dihydrobenzodiazepinone methyl group upon
BRD4(1) addition was used to monitor BRD4(1) binding.
The curves were derived from the integral reduction for the signal of the methyl
group located at 4,5-dihydrobenzodiazepinone headgroup upon BRD4(1) addition, detected
by means of Ligand-observed 1H NMR. E Kd values were determined using the one site-
specific binding model least square fit non-linear regression from Graphpad Prism®.
X = concentration of the ligand
Bmax = maximum binding in the same units as Y
Kd = dissociation constant in the same units as X
Ligand-Observed Proton NMR. BRD4(1) bromodomain protein in HEPES containing storage buffers were exchanged into Invitrogen 10 mM Na/K phosphate buffer (0.9% NaCl, pH 7.6) using dialysis. BRD4(1) bromodomain protein concentrations in the phosphate
Samples were prepared to a total sample volume of
160 µL phosphate buffer, with 50 µM compound from 5 mM D6-DMSO stock solutions, 10%
D2O for signal locking and the appropriate amount of protein. After loading into 3 mm
Hildenberg NMR tubes for Bruker Matchä system, samples were briefly centrifuged in a
manual benchtop rotor. Spectra were recorded on a Bruker AVIII 700 MHz spectrometer
with a TXI probe using a standard excitation-sculpting water suppression pulse sequence
For each compound, a compound only sample was recorded as a
reference, followed by samples with protein. Each spectrum was processed with Bruker
Topspinä 3.2, the data were recorded using Microsoft ExcelÒ, then the Kd value was
calculated using the “one site – specific binding; non-linear regression” function using
Graphpad PrismÒ. In Topspin, spectra were phased corrected and calibrated to the residual
DMSO peak, then local baseline corrections were performed (“absf n” function). The integral
of the studied peaks and the DMSO reference peaks were calculated in each spectra for the
determined chemical shift range (constant ranges were used for each studied compound).
Using the ratio of integrals, the integral decrease of the peak of interest with increasing […]

Where “and” joins values, the source holds several entries; their conditions need not be identical. Identical values can stand only once. Like-named read-outs stand apart in the source and are kept apart here.

In the case of `COc1ccc2c(c1)N(CCC/C=C/c1cccc3c1N[C@H](C)CC(=O)N3)CCC2` [Compound 2, (R,E)-6-(5-(7-Methoxy-3,4-dihydroquinolin-1(2H)-yl)pent-1-en-1-yl)-4-methyl-1,3,4,5-tetrahydro-2H-benzo[b][1,4]diazepin-2-one], the Kd was 102 ± 10 nM on CREBBP bromodomain [1]; 200 nM at CREBBP bromodomain [3]; 240 nM and 230 nM on EP300 bromodomain; 10300 ± 1890 nM at BRD4(1) [6]. For the same molecule, the “selectivity for CREBBP versus BRD4(1)” value at CREBBP bromodomain [1] (BRD4(1) Kd from NMR) is > 100 fold. The “LLE (A – B)” value at CREBBP bromodomain [1] (CREBBP pKd or pIC50 (A) minus cLogD pH7.4 (B)) stood at 1.92. Further, the “CREBBP pKd” value on CREBBP bromodomain [1] (ITC) came out at 7.0. On CREBBP bromodomain [1] (Table 2, BRD4(1) Kd from ITC and NMR), the “CREBBP / BRD4(1) selectivity” value amounted to 101. Moreover, the LE at CREBBP bromodomain [1] (from CREBBP pKd or pIC50) worked out at 0.33. Also, the “BRD4(1) Kd (ITC)” value was “n.b. and n.b.^c” on BRD4(1) [2]; “n.b” at BRD4(1) [2] (csv supplement). In addition, on BRD4(1) [2], the “binding to BRD4(1) by ITC (in words)” value is “unable to detect binding”. Besides, the “binding to the other bromodomains of the panel (BROMOscan)” value in assay [4] was “no binding”. Further, the c-Myc expression entry in the assay on c-Myc in HCT116 cells is on record as “reduces expression of c-Myc”. For the same molecule, the “c-Myc mRNA level” value in assay [5] is recorded as “effects were also observed on c-Myc mRNA”. The H3K18Ac level entry in the assay with H3K18Ac in HCT116 cells is recorded as “decrease”. The “H3K18Ac level relative to t = 0” value with H3K18Ac in HCT116 cells (6 h) is listed as ~30 % of t = 0; in the assay on H3K18Ac in HCT116 cells (24 h), ~70 % of t = 0. Further, the H3K27Ac level entry in the assay on H3K27Ac in HCT116 cells is listed as “decrease”. Moreover, the “H3K27Ac level relative to t = 0” value in the assay on H3K27Ac in HCT116 cells (6 h) is listed as ~30 % of t = 0; in the assay on H3K27Ac in HCT116 cells (24 h) it was ~70 % of t = 0. The “HIF-1α level in hypoxia” value in the assay with HIF-1α in HCT116 cells is on record as “stabilization of HIF-1α above the level observed in hypoxia alone”.
